Assay results reported in patent US20060021075A1, “Group 1 CD1 transgenic mice and their uses” (priority 2004, published 2006).

Tested on: BM-DCs
Experiment: Flow cytometric analysis of CD1a, b, c expression on BM-DCs of hCD1Tg mice
Assay type: cell-based, mouse
Conditions: BM-DCs from hCD1Tg mice cultured in GM-CSF and IL-4

| Substance | Upregulation of CD1a, b, and c expression on BM-DCs |
| --- | --- |
| IFN-γ: cytokine tested for upregulation of CD1 on BM-DCs | cannot be upregulated |
| TNF-α | cannot be upregulated |
